Assay results: patent US9381349B2, “Apparatus for treating cerebral neurovascular disorders including headaches by neural stimulation” (priority 1997, dated 2016)

Key:
[1] = in vivo; cited from earlier work
tinnitus = test: Inhibition of tinnitus by dorsonasal administration of ropivacaine (Example 4); assay type: in vivo, human
Description: Ropivacaine was dorsonasally administered to each of three patients using the nasal spray method or the nasal drops method described herein.

nerve structure = details: in vivo; cited from earlier work
recurring migraine = test: Dorsonasal ropivacaine therapy in recurring migraine: frequency and severity of subsequent episodes (Example 3); assay type: in vivo, human
Description: The following studies relate to the methods of decreasing the frequency and severity of CNvD episodes described herein, and involved three patients.
A patient, herein designated “patient 3-1” was afflicted with recurring severe migraine, wherein acute migraine episodes were associated with nausea and visual changes. Patient 3-1 generally rated the severity of head pain associated with acute migraine episodes in the range from five to eight using the pain scale described herein. Patient 3-1 experienced, on average, about one acute migraine episode per week prior to beginning dorsonasal ropivacaine therapy. In addition, patient 3-1 also usually experienced about one severe acute migraine episode per month, associated with menses, wherein the severity of head pain was from eight to ten using the pain scale described herein.
Ropivacaine was dorsonasally administered to patient 3-1 using the cotton swab technique described herein. The patient has consistently experienced relief from all of the symptoms of their CNvD episodes within 3 to 5 minutes following administration of ropivacaine, regardless of whether the episodes are associated with menses.
A person, herein designated, “patient 3-2,” was afflicted with recurring migraines. […] Head pain associated with the patient's acute migraine episodes is typically preceded by visual changes which they describe as a curtain-like wave of scotomata moving from left to right until they are unable to see. The patient then becomes disoriented with respect to time and place and must sit or lay down. Following these prodromal symptoms, a severe headache, rated 10 on the pain scale described herein, begins and typically endures for 45 to 60 minutes. The patient remains completely debilitated for the duration of the headache, unable to move about or walk. As the headache subsides, the patient's vision returns, and the patient is left feeling exhausted, as if they had not slept the night before.
A person, herein designated, “patient 3-3,” experienced about 3 to 5 recurring migraine episodes per week prior to beginning dorsonasal ropivacaine therapy. The initial severity of these headaches was reported to be 10, using the pain scale described herein. When ropivacaine was administered, using the saturated swab method described herein, to patient 3-3 during a headache episode, the patient reported a decrease in head pain from a rating of 10 to a rating of 0 or 1 within 10 minutes following ropivacaine administration. Furthermore, after three months of dorsonasal ropivacaine treatment, patient 3-3 reported that the frequency of their headache episodes had decreased to about 1 to 2 times weekly and that the initial severity of their headaches was in the range from about 7 to about 8, rather than 10.

[2] = cited from earlier work
[3] = patient 4-3, 1 milliliter 0.75% (w/v) per nostril, nasal drop
[4] = patient 3-1, about three or four months after initiation

SMILES: CCCN1CCCC[C@H]1C(=O)Nc1c(C)cccc1C [Ropivacaine, ropivacaine]
- Cardiotoxicity [1]: this side effect is not exhibited
- Cardiovascular and central nervous system toxicity [1]: lower cardiovascular and central nervous system toxicity than bupivacaine
- Time to relief of head pain and tinnitus symptoms (tinnitus; patient 4-1, dorsonasal spray): within about five minutes
- Decrease in head pain (tinnitus; patient 4-2, dorsonasal spray, non-neurovascular chronic head pain): about 2 points
- Reduction in tinnitus symptoms, right ear (tinnitus; [3]): 50-75%
- Tinnitus symptoms, left ear (tinnitus; [3]): complete relief
- Inhibition of tinnitus, patients (tinnitus; three patients, nasal spray or nasal drops): All three patients experienced inhibition of tinnitus
- Anesthetic effect of 0.75% (w/v) ropivacaine-HCl relative to lidocaine (nerve structure): approximately equivalent to that of 3% (w/v) lidocaine
- Frequency of subsequent acute migraine episodes (recurring migraine; [4]): decrease in the frequency with which acute migraine episodes not associated with menses occurred
- Initial severity of subsequent acute migraine episodes (recurring migraine; [4]): decrease in the initial severity of acute migraine episodes not associated with menses
- Frequency of headaches after therapy (recurring migraine; patient 3-2, after four to six months of therapy): approximately one headache every two months or longer
- Initial headache pain (prior to administration) after therapy (recurring migraine; patient 3-2, after four to six months of therapy, previously about 10): ≤ 2
- Time to complete resolution of headache (recurring migraine; patient 3-2, nasal spray): completely resolved by fifteen minutes
- Headache pain intensity after administration (recurring migraine; patient 3-2, nasal spray, from 10, within one to two minutes, pain scale 0-10): 2-3
- Proportion bound to protein in vivo [2]: Approximately 95%
